{"source": "paper PMC12534982", "about": "(Journal of Experimental & Clinical Cancer Research : CR, 2025)", "key": {"colorectal cancer cells [1]": {"system": "colorectal cancer cells", "test": "DNA damage immunostaining (γ-H2AX, Rad51)", "assay_type": "cell-based, human", "details": "25 µM, 24 h", "method": "To evaluate DNA damage, cancer cells (1 × 10^3) were cultured in 8-well collagen IV Ibidi chamber slides (#80,822; Ibidi) for 24 h, treated with DMSO or NK-A 17E-233I (25 µM) for an additional 24 h, and then fixed. For assessing the integrity of the cytoskeleton, neuronal cells (BFCNs) were cultured on coverslips for 14 days, while non-neuronal cells (cancer cells) were cultured on coverslips for 24 h. Both neuronal and non-neuronal cells were treated with DMSO or NK-A 17E-233I (1 µM) for 24 h, fixed, and permeabilized as described in [21]. Samples were then blocked (non-neuronal cells with 3% BSA in PBS-T and neuronal cells with 10% BSA in PBS-T) and incubated overnight at 4 °C with the appropriate primary antibodies. Following this, samples were washed with PBS-T and incubated for 1 h with Alexa-488 Phalloidin (#A12379; Invitrogen-ThermoFisher Scientific) to visualize F-actin, along with the corresponding secondary antibodies. The cells were mounted with Ibidi mounting medium containing 4',6-diamidino-2-phenylindole (DAPI, #50011; Ibidi) prior to imaging. […]\n(§1) The density of γ-H2AX, Rad51, ΔΨm, and oxidative stress in cancer cells was measured as described in [32], utilizing custom macros available as open access at Zenodo (https://zenodo.org/records/8387899) to obtain raw intensities and individual cell area."}, "SW620 cells": {"system": "SW620 cells", "test": "Glutathione assay (GSH/GSSG)", "assay_type": "cell-based, human", "details": "25 µM, 24 h", "method": "Optical density measurements were recorded at 450 nm using a Victor Multilabel Plate Reader."}, "[2]": {"system": "human colorectal cancer cell lines", "test": "Cell viability assay (CellTiter-Glo)", "assay_type": "cell-based", "details": "dose-dependent; 48 h"}, "colorectal cancer cells [3]": {"system": "colorectal cancer cells", "test": "Mitochondrial membrane potential (MitoTracker Red)", "assay_type": "cell-based, human", "method": "Cancer cells (1 × 10^3) were cultured in 8-well collagen IV Ibidi chamber slides and treated with DMSO or NK-A 17E-233I (25 µM) for 24 h. The media was replaced with fresh media containing 100 nM MitoTracker Red dye to measure ΔΨm (1 mM stock; #M7512; Thermo Fisher Scientific) and 5 µM CellROX Deep Red Reagent to assess oxidative stress levels (2.5 mM stock; #C10422; Thermo Fisher Scientific) for 45 min. The cells were then fixed with 4% methanol-free PFA, washed with PBS, and mounted with Ibidi mounting medium containing 4',6-diamidino-2-phenylindole (DAPI) prior to imaging.\nas §1"}, "colorectal cancer cells [4]": {"system": "colorectal cancer cells", "test": "Clonogenic assay", "assay_type": "cell-based, human", "method": "Cancer cells (4 × 10^3) were cultured in 6-well plates in triplicate and treated with DMSO or NK-A 17E-233I (25 µM) for two weeks. Colonies were subsequently stained with a solution containing 0.5% crystal violet (#B21932.14; ThermoScientific) and 20% ethanol, followed by multiple washes with water. Plates were allowed to air dry overnight and were subsequently scanned using an Epson Perfection V850 Pro scanner (Kamera Express, Spain). The area of the wells occupied by cells was quantified utilizing the ImageJ plugin ColonyArea."}, "colorectal cancer cells [5]": {"system": "colorectal cancer cells", "test": "Flow cytometry-based cell cycle analysis", "parameters": "species or system human", "method": "Cancer cells (3 × 10^4) were cultured in 48-well plates and treated with DMSO or NK-A 17E-233I (25 µM) for 24 h. Following treatment, all wells were washed with PBS (#P4417; Sigma-Aldrich), and the cells were collected in Eppendorf tubes. The cells were harvested using 0.25% trypsin (#25200056; ThermoScientific) and 0.02% EDTA (1:1) (#17892; ThermoFisher Scientific) for 2 min, followed by the addition of DMEM. The tubes were then centrifuged at 500 × g for 5 min. The supernatant was discarded, and the pellets were fixed in 70% cold ethanol and stored at -20 °C for at least 1 h. The pellets were resuspended in 1 mL PBS and centrifuged at 500 × g at 4 °C for 5 min. The supernatant was discarded once again, and the pellets were subsequently reconstituted in a solution containing propidium iodide (PI; #25,535–16-4, Merck) and RNase (#N8080119, Applied Biosystems), followed by storage at 4 °C overnight. Cell cycle analysis was conducted using a CytoFLEX flow cytometer (Beckman Coulter; 405 nm laser). Cells were gated based on size and granularity on a forward scatter (FSC)/side scatter (SSC) plot, with cell debris excluded from the analysis. Mean fluorescence intensity from 1 × 10^4 cells was recorded. Data analysis was conducted using FlowJo software v10.8.1 (BD Life Sciences)."}, "[6]": {"system": "basal forebrain cholinergic neurons (BFCNs)", "test": "Cytoskeleton immunostaining", "assay_type": "cell-based, mouse", "details": "24 h", "method": "To evaluate DNA damage, cancer cells (1 × 10^3) were cultured in 8-well collagen IV Ibidi chamber slides (#80,822; Ibidi) for 24 h, treated with DMSO or NK-A 17E-233I (25 µM) for an additional 24 h, and then fixed. For assessing the integrity of the cytoskeleton, neuronal cells (BFCNs) were cultured on coverslips for 14 days, while non-neuronal cells (cancer cells) were cultured on coverslips for 24 h. Both neuronal and non-neuronal cells were treated with DMSO or NK-A 17E-233I (1 µM) for 24 h, fixed, and permeabilized as described in [21]. Samples were then blocked (non-neuronal cells with 3% BSA in PBS-T and neuronal cells with 10% BSA in PBS-T) and incubated overnight at 4 °C with the appropriate primary antibodies. Following this, samples were washed with PBS-T and incubated for 1 h with Alexa-488 Phalloidin (#A12379; Invitrogen-ThermoFisher Scientific) to visualize F-actin, along with the corresponding secondary antibodies. The cells were mounted with Ibidi mounting medium containing 4',6-diamidino-2-phenylindole (DAPI, #50011; Ibidi) prior to imaging.\nThe primary antibodies utilized were: anti–α-tubulin at a 1:1000 dilution (#SC-32293; Santa Cruz), anti–γ-H2AX and anti-Rad51 at 1:500 dilution (#ab22551 and #ab133534, respectively; […]), and anti–microtubule-associated protein 2 (MAP2) at a 1:1000 dilution (#OSM00149W; ThermoFisher Scientific). […]"}, "[7]": {"system": "tumor-derived intestinal organoids", "test": "Organoid viability (CellTiter-Glo 3D)", "assay_type": "cell-based, human", "details": "96 h"}, "colorectal cancer cells [8]": {"system": "colorectal cancer cells", "test": "Cell proliferation assay (Trypan Blue exclusion)", "assay_type": "cell-based, human", "method": "Cancer cells (7.5 × 10^3) were cultured in 60-mm Petri dishes and treated with DMSO or NK-A 17E-233I (25 µM) to evaluate their proliferation at various time intervals (24 h, 48 h, 96 h, 120 h) using the Trypan Blue exclusion assay."}, "FBS-starved cancer cells": {"system": "FBS-starved cancer cells", "test": "Serum starvation of cancer cells (CellTiter-Glo)", "assay_type": "cell-based, human", "details": "25 µM, 24 h, FBS-free", "method": "Cancer cells (7.5 × 10^3) were cultured in a 96-well plate in DMEM (fortified with 10% FBS) for 24 h. Subsequently, the cells were subjected to serum starvation (FBS-free DMEM) and treated with either DMSO or NK-A 17E-233I (25 µM) for an additional 24 h. Cell proliferation was measured using the CellTiter-Glo reagent as previously described."}}}
{"smiles": "COc1cc(C)c(Oc2cc(C)cc(O)c2O)c(O)c1", "note": "[NK-A 17E-233I]", "values": [{"measurement": "intensity of γ-H2AX and Rad51", "setting": "colorectal cancer cells [1]", "value": "significant increase"}, {"measurement": "GSH/GSSG ratio", "setting": "SW620 cells", "value": "significantly decreased"}, {"measurement": "oxidized glutathione (GSSG) levels", "setting": "SW620 cells", "value": "increasing"}, {"measurement": "reduced glutathione (GSH) levels", "setting": "SW620 cells", "value": "significantly decreased"}, {"measurement": "viability", "setting": "[2]", "value": "reduced the viability"}, {"measurement": "mitochondrial membrane potential (ΔΨm)", "setting": "colorectal cancer cells [3]; HCT116, 25 µM, 24 h", "value": "significantly decreased"}, {"measurement": "mitochondrial membrane potential (ΔΨm)", "setting": "colorectal cancer cells [3]; different cancer cell lines (HT-29), 25 µM", "value": "decreased"}, {"measurement": "ability to form colonies", "setting": "colorectal cancer cells [4]; 25 µM, two weeks", "value": "significantly diminished"}, {"measurement": "combination with the ATR inhibitor VE-821", "setting": "colorectal cancer cells [4]; LS174T: Tx 4 µM, VE-821 0.5 µM, 14 days, HCT116", "value": "synergistic activity"}, {"measurement": "cell cycle distribution", "setting": "colorectal cancer cells [5]; 25 µM", "value": "arrest of colorectal cancer cells in the S-phase and an increase in sub-G1 cell populations"}, {"measurement": "cell cycle after washout", "setting": "colorectal cancer cells [5]; washout 12 h, NK-A 17E-233I 25 µM, HU 1 mM", "value": "remained arrested and/or underwent cell death"}, {"measurement": "dendritic and cytoskeletal structures (F-actin, MAP2)", "setting": "[6]", "value": "retained their dendritic and cytoskeletal structures"}, {"measurement": "sensitivity of tumor-derived organoids", "setting": "[7]", "value": "demonstrated sensitivity to NK-A 17E-233I in a dose-dependent manner"}, {"measurement": "cell proliferation", "setting": "colorectal cancer cells [8]; 25 µM, over time", "value": "reduced"}, {"measurement": "growth inhibition in the presence of physiological uridine", "setting": "colorectal cancer cells [8]; SW620, 25 µM, 24 h, 5 µM and 20 µM uridine", "value": "did not mitigate the growth inhibitory effects"}, {"measurement": "effect on starved cancer cells", "setting": "FBS-starved cancer cells", "value": "no significant effect"}]}
